≈ marks a conversion by molar mass, not a printed value.
Key:
[1] = system: T1, CTL2-GFP (C. trachomatis L2/434/Bu, GFP-expressing); experiment: microbe, parasite or virus in culture; parameters: species or system HeLa; C. trachomatis growth in HeLa, dose-response, mean of bulk GFP fluorescence and imaged total inclusion area; conditions: Chlamydia trachomatis, 28.5 h; mean of GFP and inclusion area
T1 construct: L2/434/Bu, GFP-expressing
Text: (§1) We screened a library of 36,785 small molecules displaying drug-like properties and covering a wide chemical space (Fig 1A and S2A Data). In this process, we also complemented the assay described above with an imaging-based readout (Fig 1B). After measurements of bulk GFP and resorufin fluorescence, cells were fixed, stained with the DNA dye Hoechst, and imaged at a high-content imaging platform to detect chlamydial inclusions (GFP) and host cell nuclei (Hoechst). The total area and number of inclusions in individual wells and the number of nuclei then served as additional proxies for chlamydial growth and host cell viability. […] MICs were calculated as described above.

in vitro = experiment: in vitro; parameters: Viability of infected HeLa host cells, resazurin conversion, bulk resorufin fluorescence relative to DMSO; conditions: human, hela cells; bulk resorufin, mean of 3
[2] = system: T1, CTL2-GFP (C. trachomatis L2/434/Bu, GFP-expressing); experiment: microbe, parasite or virus in culture; parameters: C. trachomatis growth in HeLa, dose-response, mean of bulk GFP fluorescence and imaged total inclusion area; conditions: Chlamydia trachomatis, HeLa, 28.5 h; mean of GFP and inclusion area
Text: as §1

| Compound | MIC [1] [µM] | viability at 28.5 h, 0.000416667 µM (in vitro) [%] | viability at 28.5 h, 0.00125 µM (in vitro) [%] | viability at 28.5 h, 0.00375 µM (in vitro) [%] | viability at 28.5 h, 0.0123333 µM (in vitro) [%] | viability at 28.5 h, 0.037 µM (in vitro) [%] | viability at 28.5 h, 0.111 µM (in vitro) [%] | viability at 28.5 h, 0.333 µM (in vitro) [%] | viability at 28.5 h, 1 µM (in vitro) [%] | viability at 28.5 h, 3 µM (in vitro) [%] | viability at 28.5 h, 10 µM (in vitro) [%] | viability at 28.5 h, 30 µM (in vitro) [%] | IC50 [2] [µM] |
| --- | --- | --- | --- | --- | --- | --- | --- | --- | --- | --- | --- | --- | --- |
| Cc1noc(-c2ccc3c(c2O)OCCO3)c1-c1ccc(Cl)cc1 [c20e] | 2.69 (≈ 0.926 µg/mL) | 99.7 | 97 | 93.1 | 91.8 | 94.3 | 86.5 | 88.7 | 86.1 | 83.4 | 85.9 | 75.6 | 1.39 |
| Fc1cc(Br)c(CNCc2ncc[nH]2)c(N2CCCCC2)c1F [c31e] | 5.18 (≈ 1.99 µg/mL) | 101 | 103 | 98.4 | 96.4 | 92 | 100 | 93.6 | 97.6 | 101 | 97.6 | 102 | 3.12 |
| OCCNc1nc(Nc2ccc(Br)cc2)nc2ccccc12 [c17e] | 3.14 (≈ 1.13 µg/mL) | 95.2 | 87.1 | 86.4 | 86.4 | 88.2 | 83.5 | 88.9 | 86 | 84.9 | 81.2 | 71.2 | 1.24 |
| Cc1cccc(OCC(C)NC(=O)NCCc2cnn(C)c2)c1 (stereo not shown) [c47e] | 12.1 (≈ 3.83 µg/mL) | 97.2 | 99.7 | 102 | 104 | 105 | 100 | 112 | 106 | 109 | 113 | 118 | 6.59 |
| O=C(Nc1ccc(OC(F)(F)F)cc1)Nc1cc(-c2cccs2)n[nH]1 [c26e] | 3.98 (≈ 1.47 µg/mL) | 104 | 100 | 99.3 | 100 | 96.1 | 106 | 106 | 108 | 105 | 103 | 96.4 | 2.5 |
| Oc1ccccc1Nc1nc(NC2CCCC2)c2ccccc2n1 [c49e] | 10.8 (≈ 3.45 µg/mL) | 84.4 | 94.9 | 87.6 | 90 | 86 | 91.7 | 87.8 | 90.1 | 84.7 | 90.6 | 77.3 | 7.48 |
| C1=C(CCNCCc2ccccc2)c2ccccc2C12CCCC2 [c51e] | 9.36 (≈ 2.97 µg/mL) | 99.8 | 96.2 | 101 | 98.1 | 101 | 97.8 | 99.6 | 102 | 100 | 106 | 96.5 | 8.3 |
| COc1ccc2cc3c(nc2c1)OC(=O)N(CC1CC1)C3 [c32e] | 4.53 (≈ 1.29 µg/mL) | 102 | 94.1 | 91.5 | 92 | 89.7 | 84.5 | 88.5 | 84.9 | 86.8 | 85.1 | 85.4 | 3.16 |
| COCCNc1nc2c(c(N3CCCCCC3)n1)CCNCC2 [c18e] | 1.94 (≈ 0.619 µg/mL) | 113 | 109 | 109 | 108 | 110 | 106 | 107 | 102 | 108 | 101 | 103 | 1.27 |
| CC1=C(C)C(=NNC(N)=S)C(C)=C(C)C1=NNC(N)=S [c19e] | 3.58 (≈ 1.11 µg/mL) | 101 | 103 | 109 | 101 | 101 | 107 | 104 | 103 | 107 | 109 | 114 | 1.39 |
| CC(=O)Nc1ccc(-c2cccc(COC3CCN(C(=O)c4ccc(OC(C)C)cc4)CC3)c2)cc1 [c36e] | 8.26 (≈ 4.02 µg/mL) | 89.8 | 85.4 | 90.5 | 89 | 91.7 | 89.4 | 94.8 | 92 | 95.1 | 97.8 | 116 | 4.11 |
| COCC(=O)N[C@H]1C[C@H]2C(=O)Nc3ccc(/C=C/c4ccccc4)cc3C(=O)N2C1 [c25e] | 9.14 (≈ 3.71 µg/mL) | 97.4 | 103 | 99.5 | 105 | 100 | 98.6 | 102 | 106 | 110 | 113 | 113 | 2.47 |
| Cc1cccc(-c2ccc(CC3(C(N)=O)CCN(C(=O)CCc4ccccc4)CC3)cc2)c1 [c38e] | 8.43 (≈ 3.71 µg/mL) | 101 | 97.3 | 96.8 | 101 | 98.4 | 98.7 | 94.7 | 103 | 99.3 | 104 | 114 | 4.84 |

— publication PMC12040169 (PLOS Biology, 2025)
